Source: PMC10946813, “Lipophilicity Modulations by Fluorination Correlate with Membrane Partitioning” (Angewandte Chemie (International Ed. in English), 2023)
“And” between values parts separate entries of the source, which are not always exact repeats. Equal entries are not always repeated.

Key:
[1] = Molar membrane partition coefficient (logKp) by 19F MAS solid-state NMR in lipid vesicles; assay type: physicochemical; settings: for Molar Partition Coefficient (logKP): POPC; for logKp Measured as single compound (3.30 mol%): Table 1; for logKp Measured as single compound (3.30 mol%) / logKp Measured as equimolar mixture: POPC bilayers hydrated at 20 % w/v; for increase in logKp: equimolar mixture of 9 and 10 at 3.3 mol % versus compound alone
Description: The principle of the method is explained in Figure 2 (with a detailed description of the protocol provided in Supporting Information). The method utilizes ^19F MAS NMR to quantitate the partitioning of the fluorinated compounds between the aqueous and membrane phases. […] Experimentally, it was determined that only moderate spinning speeds (10 kHz) and low power decoupling (10 kHz decoupling field) were required to obtain well resolved spectra, even at these high magnetic fields; with motional processes within the liquid crystalline lipid bilayer averaging the potentially large chemical shielding anisotropy and dipolar couplings experienced by the fluorine spins. The application of low spinning speeds and radiofrequency decoupling fields also reduces sample heating, whilst minimising the pelleting of the vesicles against the rotor wall. The absence of any discernable sidebands, resulting from incomplete averaging, simplifies the analysis, as this precludes the need to integrate the entire family of sidebands.
With knowledge of the number of water ( nW ) and lipid ( nM ) molecules, the molar partition coefficient ( KP) is readily determined.
To determine how the concentration of the compound and bilayer hydration influenced the measured logK P, a systematic study of these parameters was undertaken for compound 10 (Figure S2, Table S1). Samples were prepared where the lipids were hydrated at levels between 10 to 30 %(w/v), a range widely used to study the physical properties of lipid bilayers. […] On the basis of the reproducibility of these figures, all subsequent experiments were conducted at 20 % (w/v) hydration with a compound/lipid ratio of 0.033. In addition to providing excellent reproducibility, these concentrations afforded good signal to noise ratios with sensible spectral acquisition times. […]
(§1) to the r.f. field strength then care should be taken to ensure that the two compounds are similarly excitated. Quantitative data also requires the complete relaxation of the nuclei between scans. For the studies reported here, saturation recovery measurements were performed on each system, with spectra then acquired with a recycle delay of five times T1. It […]
(§2) shorter T1 values than that of the substrate in aqueous solution, mirroring the observation […]
(§3) In addition to more general NMR considerations, care must also be exercised to ensure that the signal intensity, particularly that of the membrane bound state, is not influenced by anisotropic interactions that may be present. Due to the molecular dynamics within the lipid bilayer, many of these interactions are already motionally averaged facilitating their removal.
(§4) The application of low-power (10 kHz) SPINAL-64 decoupling[2] is sufficient to remove the weak scalar and dipolar couplings that are present within the fluid lipid bilayer. Care was taken […]
(§5) linebroadening due to temperature dependent changes in chemical shift. Similarly, data was acquired with both 5 and 10 kHz MAS and no change in isotropic chemical shift was observed […]
(§6) However, increasing the spinning speed from 5 to 10 kHz ensured complete averaging the residual chemical shielding anisotropy and other anisotropic contrbutions to the spectra and the presence of a single isotropic resonance for each population. The absence of any discernable sidebands in spectra acquired at 10 kHz allows the accurate integration of the signal intensity without the need to integrate the entire family of sidebands which would be required for a quantitative analysis.
(§7) Care should be taken when extending this to other compounds where the anisotropy may larger, either due to a larger chemical shielding anisotropy at the fluorine site studied or the application of higher magnetic as this would complicate the signal integration.
Prior to Fourier Transform, data was processed with 1Hz exponential line broadening and zero filled with 16384 points. The resulting spectra was phased and base line corrected. All processing was performed in Matlab using matNMR[5]. […]

[2] = Octanol-water partition coefficient (logP OW), 19F NMR method with reference compound
[3] = Molar membrane partition coefficient (logKp) by 19F MAS NMR in POPC/cholesterol bilayers; assay type: physicochemical; settings: for Molar Partition Coefficient (logKP): Table S3, POPC, 20% (w/v), substrate 3.3 mol%; for fall in logKP: increasing cholesterol up to 50 mol % versus pure POPC membranes
From the text: A major advantage of the method presented here compared to logP determination is that it can be applied to membranes of arbitrary complexity, enabling the analysis of the influence of such properties as headgroup size/charge and chain length/saturation. […] As an example of this kind of investigation, a mixed lipid system was employed. In particular, we investigated how increasing concentrations of cholesterol, a commonly found sterol in eukaryotic cell membranes, influenced the membrane partitioning of 9 and 10 (Figure 5, Table S3). […] The fall in logK P mirrors earlier studies where a reduction in membrane partitioning for small molecules has been observed.[19] This reduction has been attributed to the […] of the acyl chain packing and their favourable interactions with the cholesterol.[20] […]
as §1, §2, §3, §4, §5, §6, §7
Prior to Fourier Transform, data was processed with 1Hz exponential line broadening and zero filled with 16384 points. The resulting spectra was phased and base line corrected. All processing was performed in Matlab using matNMR[5]. The subsequent resonances where fitted to Lorentzian peaks using custom scripts in Matlab which are available from the authors.
1.4 Calculation of the molar membrane partition coefficients
In the slow exchange limit the molar partition coefficient can then be calculated as:
K = n",$/n$ = C",$/’(’)*.n% = I",$ . n%
Where C",+ and C",$ are the concentrations of the substrate in the membrane and aqueous phases respectively and n", n$ and n% are the number of substrate, lipid and water molecules respectively. The ratio C",$/’(’)*/C",%/’(’)* can be determined directly from the ratio of the integrals from the signals arising from the lipidic and aqueous phases (See Figure 2, main paper), whilst the ratio of n%/n$ represents the ratio of water to lipid molecules in the membrane, the degree of hydration.
2 Influence of exchange between the membrane and aqueous phase on 19F MAS-NMR Lineshape (Figure S1)
The influence of chemical exchange is well characterised in the liquid state, however […]

[4] = Table S2, one 19F resonance evaluated
[5] = Table S2, glycosides, first listed 19F resonance
[6] = Table S2, glycosides, second listed 19F resonance
[7] = individual experiment (octanol/water), one of triplicate
[8] = octanol/water, Average logP, triplicate
[9] = octanol/water, Error (mean logP with standard deviation), triplicate, three decimals

OC[C@H](F)C[C@@H](F)CO (single isomer, unassigned) [ent-15]
Molar Partition Coefficient (logKP) [1, 4]: 1.82 ± 0.06

OCC1CC1(F)F (stereo not drawn) [compound 1]
Molar Partition Coefficient (logKP) [1, 4]: 2.54 ± 0.08

OC[C@H]1C[C@@H]1F [compound 2]
Molar Partition Coefficient (logKP) [1, 4]: 2.17 ± 0.05

OCC1(F)CC1 [compound 3]
Molar Partition Coefficient (logKP) [1, 4]: 2.08 ± 0.01

OC[C@@H]1C[C@@H]1F [compound 4]
Molar Partition Coefficient (logKP) [1, 4]: 2.02 ± 0.04

CO[C@H]1O[C@H](CF)[C@@H](F)[C@H](O)[C@H]1O [compound 5]
Molar Partition Coefficient (logKP) [1, 5]: 1.98 ± 0.02
Molar Partition Coefficient (logKP) [1, 6]: 1.98 ± 0.03
logP [2, 7]: -0.698 and -0.708 and -0.717
logP [2, 8]: -0.71
logP [2, 9]: -0.707

CO[C@@H]1O[C@H](CF)[C@@H](F)[C@H](O)[C@H]1O [compound 6]
Molar Partition Coefficient (logKP) [1, 5]: 1.93 ± 0.16
Molar Partition Coefficient (logKP) [1, 6]: 1.95 ± 0.15
logP [2, 7]: -1.036 and -1.054 and -1.053
logP [2, 8]: -1.05
logP [2, 9]: -1.05

CO[C@H]1O[C@H](CF)[C@H](F)[C@H](O)[C@H]1O [compound 7, methyl 4,6-dideoxy-4,6-difluoro-α-D-galactopyranoside]
Molar Partition Coefficient (logKP) [1, 5]: 1.80 ± 0.05
Molar Partition Coefficient (logKP) [1, 6]: 1.87 ± 0.14
logP [2, 7]: -0.905 and -0.898
logP [2, 8]: -0.9
logP [2, 9]: -0.902

CO[C@@H]1O[C@H](CF)[C@H](F)[C@H](O)[C@H]1O [compound 8, methyl 4,6-dideoxy-4,6-difluoro-β-D-galactopyranoside]
Molar Partition Coefficient (logKP) [1, 5]: 1.69 ± 0.00
Molar Partition Coefficient (logKP) [1, 6]: 1.64 ± 0.06
logP [2, 7]: -1.257 and -1.242 and -1.253
logP [2, 8]: -1.25
logP [2, 9]: -1.25

OCCCC(F)(F)CO [compound 9]
logKp Measured as single compound (3.30 mol%) [1]: 2.01±0.02
Molar Partition Coefficient (logKP) [1, 4]: 2.01 ± 0.02
Molar Partition Coefficient (logKP) ([1]; Table S3, membrane cholesterol 0 mol %, 20% (w/v), substrate 3.3 mol%): 2.01 ± 0.02
increase in logKp [1]: 0.2 units
logKp Measured as equimolar mixture ([1]; mixture 9+10, 1.65 mol% each): 1.99±0.09
logKp Measured as equimolar mixture ([1]; mixture 9+10, 3.30 mol% each): 2.18±0.07
Molar Partition Coefficient (logKP) ([3]; membrane cholesterol 25 mol %): 1.87 ± 0.03
Molar Partition Coefficient (logKP) ([3]; membrane cholesterol 50 mol %): 1.77 ± 0.02
fall in logKP [3]: 0.24

OCCC(F)(F)CCO [compound 10]
logKp Measured as single compound (3.30 mol%) [1]: 1.83±0.04 and 1.83±0.11
logKP ([1]; Table S1, hydration 10 % w/v, substrate/lipid 0.010 mole/mole): 1.73
logKP ([1]; Table S1, hydration 10 % w/v, substrate/lipid 0.033 mole/mole): 1.91
logKP ([1]; Table S1, hydration 10 % w/v, substrate/lipid 0.100 mole/mole): 1.81
logKP ([1]; Table S1, hydration 20 % w/v, substrate/lipid 0.010 mole/mole): 1.97
logKP ([1]; Table S1, hydration 20 % w/v, substrate/lipid 0.033 mole/mole, mean value (n=3)): 1.83
logKP ([1]; Table S1, hydration 20 % w/v, substrate/lipid 0.100 mole/mole): 1.95
logKP ([1]; Table S1, hydration 30 % w/v, substrate/lipid 0.010 mole/mole): 1.81
logKP ([1]; Table S1, hydration 30 % w/v, substrate/lipid 0.033 mole/mole): 1.69
logKP ([1]; Table S1, hydration 30 % w/v, substrate/lipid 0.100 mole/mole): 1.85
logKP, Mean ([1]; Table S1, mean over all hydrations (10-30 % w/v) and substrate/lipid ratios (0.010-0.100)): 1.85
Molar Partition Coefficient (logKP) [1, 4]: 1.83 ± 0.04
mean logKP ([1]; compound concentration 1 to 10 mol % (with respect to total lipid), mean across all levels of hydration): 1.85±0.02
increase in logKp [1]: 0.2 units
mean logKP ([1]; lipids hydrated at 10 to 30 %(w/v), mean across the range of compound concentrations studied): 1.85±0.06
logKp Measured as equimolar mixture ([1]; mixture 9+10, 1.65 mol% each): 1.84±0.01
logKp Measured as equimolar mixture ([1]; mixture 9+10, 3.30 mol% each): 2.01±0.04
logKp Measured as equimolar mixture ([1]; mixture 10+13, 3.30 mol% each): 1.88±0.11
Kp at 0.01 mole/mole substrate/lipid ([1]; multilamellar POPC vesicles, Table S1, hydration 10 % w/v, substrate/lipid 0.010 mole/mole): 53.4
Kp at 0.033 mole/mole substrate/lipid ([1]; multilamellar POPC vesicles, Table S1, hydration 10 % w/v, substrate/lipid 0.033 mole/mole): 81.8
Kp at 0.1 mole/mole substrate/lipid ([1]; multilamellar POPC vesicles, Table S1, hydration 10 % w/v, substrate/lipid 0.100 mole/mole): 64.5
Kp at 0.01 mole/mole substrate/lipid ([1]; multilamellar POPC vesicles, Table S1, hydration 20 % w/v, substrate/lipid 0.010 mole/mole): 93.9
Kp at 0.033 mole/mole substrate/lipid ([1]; multilamellar POPC vesicles, Table S1, hydration 20 % w/v, substrate/lipid 0.033 mole/mole): 67.6
Kp at 0.1 mole/mole substrate/lipid ([1]; multilamellar POPC vesicles, Table S1, hydration 20 % w/v, substrate/lipid 0.100 mole/mole): 89.4
Kp at 0.01 mole/mole substrate/lipid ([1]; multilamellar POPC vesicles, Table S1, hydration 30 % w/v, substrate/lipid 0.010 mole/mole): 65.3
Kp at 0.033 mole/mole substrate/lipid ([1]; multilamellar POPC vesicles, Table S1, hydration 30 % w/v, substrate/lipid 0.033 mole/mole): 49.2
Kp at 0.1 mole/mole substrate/lipid ([1]; multilamellar POPC vesicles, Table S1, hydration 30 % w/v, substrate/lipid 0.100 mole/mole): 70.7
Kp ([1]; multilamellar POPC vesicles, Table S1, mean over all hydrations (10-30 % w/v) and substrate/lipid ratios (0.010-0.100)): 71.6
Molar Partition Coefficient (logKP) ([3]; membrane cholesterol 25 mol %): 1.74 ± 0.02
Molar Partition Coefficient (logKP) ([3]; membrane cholesterol 50 mol %): 1.68 ± 0.05
fall in logKP [3]: 0.17

OCCC(F)CCO [compound 11]
Molar Partition Coefficient (logKP) [1, 4]: 1.68 ± 0.08

OCC(F)(F)CC(F)(F)CO [compound 13]
logKp Measured as single compound (3.30 mol%) [1]: 2.40±0.07
Molar Partition Coefficient (logKP) [1, 4]: 2.40 ± 0.07
logKp Measured as equimolar mixture ([1]; mixture 10+13, 3.30 mol% each): 2.50±0.10

OCC(F)CC(F)(F)CO (stereo not drawn) [compound 14]
Molar Partition Coefficient (logKP) [1, 4]: 2.01 ± 0.01

OC[C@@H](F)C[C@H](F)CO [compound 15]
Molar Partition Coefficient (logKP) [1, 4]: 1.85 ± 0.10

OC[C@@H](F)C[C@@H](F)CO [compound 16]
Molar Partition Coefficient (logKP) [1, 4]: 1.71 ± 0.10
